Measurements published in patent US7462600B2, “Macrolides” (Pfizer Inc, priority 2004, dated 2008).
Values after ≈ are worked out from the molar mass of the structure shown.

Legend:
Assay type in all cases: cell-based
[1] = test system: Streptococcus pyogenes 1079; experiment: MIC, microtiter broth dilution (NCCLS M100-S14), S. pyogenes 1079 (ermB); details: S. pyogenes 1079 (ermB)
Method in brief: (§1)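 Antibacterial activity is expressed as the MIC from broth microdilution. Reading follows the NCCLS M100-S14 performance standards, and stocks are made in DMSO at 40 mg/ml.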

[2] = test system: Streptococcus pneumoniae 1016; experiment: MIC, microtiter broth dilution (NCCLS M100-S14), S. pneumoniae 1016 (susceptible); details: S. pneumoniae 1016 (susceptible)
Method in brief: as §1

[3] = test system: Streptococcus pneumoniae 1095; details: S. pneumoniae 1095 (ermB); microtiter broth dilution
Method in brief: as §1

[4] = test system: Streptococcus pneumoniae 1175; details: S. pneumoniae 1175 (mefA); microtiter broth dilution
Method in brief: as §1

[5] = test system: Haemophilus influenzae 1218; experiment: MIC, microtiter broth dilution (NCCLS M100-S14), H. influenzae 1218 (susceptible); details: H. influenzae 1218 (susceptible)
Method in brief: as §1

| Structure (SMILES) | MIC S. pyogenes 1079 [1] | MIC S. pneumo. 1016 [2] | MIC S. pneumo. 1095 [3] | MIC S. pneumo. 1175 [4] | MIC H. influenzae 1218 [5] |
| --- | --- | --- | --- | --- | --- |
| CC[C@H]1OC(=O)[C@H](C)C(=O)[C@H](C)[C@@H](O[C@@H]2O[C@H](C)C[C@H](N(C)C)[C@H]2O)[C@](C)(OC)C[C@@H](C)C(=O)[C@H](C)[C@H]2N(CC3(O)CN(C(=O)c4cccc5cccnc45)C3)C(=O)O[C@]12C [7.20] | >64.00 µg/mL | <0.06 µg/mL | 2 µg/mL (≈ 2.34 µM) | 1 µg/mL (≈ 1.17 µM) | 0.5 µg/mL (≈ 0.586 µM) |
| CC[C@H]1OC(=O)[C@H](C)C(=O)[C@H](C)[C@@H](O[C@@H]2O[C@H](C)C[C@H](N(C)C)[C@H]2O)[C@](C)(OC)C[C@@H](C)C(=O)[C@H](C)[C@H]2N(CC3(O)CN(C(=O)c4ccc5cccnc5c4)C3)C(=O)O[C@]12C [7.21] | >64.00 µg/mL | <0.06 µg/mL | 0.5 µg/mL (≈ 0.586 µM) | 1 µg/mL (≈ 1.17 µM) | 2 µg/mL (≈ 2.34 µM) |
| CC[C@H]1OC(=O)[C@H](C)C(=O)[C@H](C)[C@@H](O[C@@H]2O[C@H](C)C[C@H](N(C)C)[C@H]2O)[C@](C)(OC)C[C@@H](C)C(=O)[C@H](C)[C@H]2N(CC3(O)CN(C(=O)c4ccc5ccccc5n4)C3)C(=O)O[C@]12C [7.22] | >64.00 µg/mL | <0.06 µg/mL | <0.06 µg/mL | 0.12 µg/mL (≈ 0.141 µM) | 1 µg/mL (≈ 1.17 µM) |
| CC[C@H]1OC(=O)[C@H](C)C(=O)[C@H](C)[C@@H](O[C@@H]2O[C@H](C)C[C@H](N(C)C)[C@H]2O)[C@](C)(OC)C[C@@H](C)C(=O)[C@H](C)[C@H]2N(CC3(O)CN(C(=O)c4cncc5ccccc45)C3)C(=O)O[C@]12C [7.23] | >64.00 µg/mL | <0.06 µg/mL | 0.5 µg/mL (≈ 0.586 µM) | 0.5 µg/mL (≈ 0.586 µM) | 2 µg/mL (≈ 2.34 µM) |
| CC[C@H]1OC(=O)[C@H](C)C(=O)[C@H](C)[C@@H](O[C@@H]2O[C@H](C)C[C@H](N(C)C)[C@H]2O)[C@](C)(OC)C[C@@H](C)C(=O)[C@H](C)[C@H]2N(CC3(O)CN(C(=O)c4cccc5ccncc45)C3)C(=O)O[C@]12C [7.24] | >64.00 µg/mL | <0.06 µg/mL | 2 µg/mL (≈ 2.34 µM) | 1 µg/mL (≈ 1.17 µM) | 2 µg/mL (≈ 2.34 µM) |
| CC[C@H]1OC(=O)[C@H](C)C(=O)[C@H](C)[C@@H](O[C@@H]2O[C@H](C)C[C@H](N(C)C)[C@H]2O)[C@](C)(OC)C[C@@H](C)C(=O)[C@H](C)[C@H]2N(CC3(O)CN(C(=O)c4cnc5ncccc5c4)C3)C(=O)O[C@]12C [7.25] | >64.00 µg/mL | <0.06 µg/mL | <0.06 µg/mL | 2 µg/mL (≈ 2.34 µM) | 1 µg/mL (≈ 1.17 µM) |
| CC[C@H]1OC(=O)[C@H](C)C(=O)[C@H](C)[C@@H](O[C@@H]2O[C@H](C)C[C@H](N(C)C)[C@H]2O)[C@](C)(OC)C[C@@H](C)C(=O)[C@H](C)[C@H]2N(CC3(O)CN(C(=O)c4cc5cccnc5[nH]4)C3)C(=O)O[C@]12C [7.26] | >64.00 µg/mL | <0.06 µg/mL | 0.12 µg/mL (≈ 0.143 µM) | 0.25 µg/mL (≈ 0.297 µM) | 0.5 µg/mL (≈ 0.594 µM) |
| CC[C@H]1OC(=O)[C@H](C)C(=O)[C@H](C)[C@@H](O[C@@H]2O[C@H](C)C[C@H](N(C)C)[C@H]2O)[C@](C)(OC)C[C@@H](C)C(=O)[C@H](C)[C@H]2N(CC3(O)CN(C(=O)c4cc5ccncc5[nH]4)C3)C(=O)O[C@]12C [7.27] | >64.00 µg/mL | <0.06 µg/mL | <0.06 µg/mL | 1 µg/mL (≈ 1.19 µM) | 1 µg/mL (≈ 1.19 µM) |
| CC[C@H]1OC(=O)[C@H](C)C(=O)[C@H](C)[C@@H](O[C@@H]2O[C@H](C)C[C@H](N(C)C)[C@H]2O)[C@](C)(OC)C[C@@H](C)C(=O)[C@H](C)[C@H]2N(CC3(O)CN(C(=O)c4nc5ccccc5[nH]4)C3)C(=O)O[C@]12C.O=CO [7.28] | >64.00 µg/mL | <0.06 µg/mL | <0.06 µg/mL | 0.25 µg/mL | 2 µg/mL |
| CC[C@H]1OC(=O)[C@H](C)C(=O)[C@H](C)[C@@H](O[C@@H]2O[C@H](C)C[C@H](N(C)C)[C@H]2O)[C@](C)(OC)C[C@@H](C)C(=O)[C@H](C)[C@H]2N(CC3(O)CN(C(=O)c4cn5ccccc5n4)C3)C(=O)O[C@]12C.O=CO [7.29] | >64.00 µg/mL | <0.06 µg/mL | 0.25 µg/mL | 8 µg/mL | 1 µg/mL |
| CC[C@H]1OC(=O)[C@H](C)C(=O)[C@H](C)[C@@H](O[C@@H]2O[C@H](C)C[C@H](N(C)C)[C@H]2O)[C@](C)(OC)C[C@@H](C)C(=O)[C@H](C)[C@H]2N(CC3(O)CN(C(=O)c4cc5ccccn5n4)C3)C(=O)O[C@]12C.O=CO [7.30] | >64.00 µg/mL | <0.06 µg/mL | 0.25 µg/mL | 0.25 µg/mL | 8 µg/mL |
| CC[C@H]1OC(=O)[C@H](C)C(=O)[C@H](C)[C@@H](O[C@@H]2O[C@H](C)C[C@H](N(C)C)[C@H]2O)[C@](C)(OC)C[C@@H](C)C(=O)[C@H](C)[C@H]2N(CC3(O)CN(C(=O)c4ccc(-n5cccn5)nc4)C3)C(=O)O[C@]12C.O=CO [7.31] | >64.00 µg/mL | <0.06 µg/mL | 4 µg/mL | 0.12 µg/mL | 8 µg/mL |
| CC[C@H]1OC(=O)[C@H](C)C(=O)[C@H](C)[C@@H](O[C@@H]2O[C@H](C)C[C@H](N(C)C)[C@H]2O)[C@](C)(OC)C[C@@H](C)C(=O)[C@H](C)[C@H]2N(CC3(O)CN(C(=O)c4cc5ncccc5[nH]4)C3)C(=O)O[C@]12C.O=CO [7.32] | >64.00 µg/mL | <0.06 µg/mL | <0.06 µg/mL | 2 µg/mL | 2 µg/mL |
| CCC1OC(=O)C(C)C(=O)C(C)C(OC2OC(C)CC(N(C)C)C2O)C(C)(OC)CC(C)C(=O)C(C)C2N(CC3CCCN3Cc3ccno3)C(=O)OC12C (stereo not shown) [10.01] | >64.00 µg/mL | <0.06 µg/mL | 0.25 µg/mL (≈ 0.322 µM) | 0.5 µg/mL (≈ 0.644 µM) | 1 µg/mL (≈ 1.29 µM) |
| CCC1OC(=O)C(C)C(=O)C(C)C(OC2OC(C)CC(N(C)C)C2O)C(C)(OC)CC(C)C(=O)C(C)C2N(CC3CCCN3Cc3c[nH]nn3)C(=O)OC12C (stereo not shown) [10.02] | >64.00 µg/mL | <0.06 µg/mL | 0.25 µg/mL (≈ 0.322 µM) | 2 µg/mL (≈ 2.57 µM) | 1 µg/mL (≈ 1.29 µM) |
| CCC1OC(=O)C(C)C(=O)C(C)C(OC2OC(C)CC(N(C)C)C2O)C(C)(OC)CC(C)C(=O)C(C)C2N(CC3CCCN3Cc3cccc4cnccc34)C(=O)OC12C (stereo not shown) [10.03] | 64 µg/mL (≈ 76.5 µM) | <0.06 µg/mL | 0.25 µg/mL (≈ 0.299 µM) | 0.25 µg/mL (≈ 0.299 µM) | 8 µg/mL (≈ 9.56 µM) |
| CCC1OC(=O)C(C)C(=O)C(C)C(OC2OC(C)CC(N(C)C)C2O)C(C)(OC)CC(C)C(=O)C(C)C2N(CC3CCCN3Cc3ccnc4ccccc34)C(=O)OC12C (stereo not shown) [10.04] | 16 µg/mL (≈ 19.1 µM) | <0.06 µg/mL | <0.06 µg/mL | <0.06 µg/mL | 0.5 µg/mL (≈ 0.597 µM) |
| CCC1OC(=O)C(C)C(=O)C(C)C(OC2OC(C)CC(N(C)C)C2O)C(C)(OC)CC(C)C(=O)C(C)C2N(CC3CCCN3Cc3cccc4cccnc34)C(=O)OC12C (stereo not shown) [10.05] | >64.00 µg/mL | <0.06 µg/mL | <0.06 µg/mL | 0.12 µg/mL (≈ 0.143 µM) | 4 µg/mL (≈ 4.78 µM) |
| CCC1OC(=O)C(C)C(=O)C(C)C(OC2OC(C)CC(N(C)C)C2O)C(C)(OC)CC(C)C(=O)C(C)C2N(CC3CCCN3C(=O)c3ccc4ncccc4c3)C(=O)OC12C (stereo not shown) [10.06] | 64 µg/mL (≈ 75.2 µM) | <0.06 µg/mL | <0.06 µg/mL | 0.12 µg/mL (≈ 0.141 µM) | 2 µg/mL (≈ 2.35 µM) |
| CCC1OC(=O)C(C)C(=O)C(C)C(OC2OC(C)CC(N(C)C)C2O)C(C)(OC)CC(C)C(=O)C(C)C2N(CC3CCCN3C(=O)c3cnc4ccccc4c3)C(=O)OC12C (stereo not shown) [10.07] | >64.00 µg/mL | <0.06 µg/mL | <0.06 µg/mL | 0.25 µg/mL (≈ 0.294 µM) | 2 µg/mL (≈ 2.35 µM) |
| CCC1OC(=O)C(C)C(=O)C(C)C(OC2OC(C)CC(N(C)C)C2O)C(C)(OC)CC(C)C(=O)C(C)C2N(CC3CCCN3C(=O)c3ccc4ccccc4n3)C(=O)OC12C (stereo not shown) [10.08] | >64.00 µg/mL | <0.06 µg/mL | <0.06 µg/mL | 2 µg/mL (≈ 2.35 µM) | 2 µg/mL (≈ 2.35 µM) |
| CCC1OC(=O)C(C)C(=O)C(C)C(OC2OC(C)CC(N(C)C)C2O)C(C)(OC)CC(C)C(=O)C(C)C2N(CC3CCCN3C(=O)c3cc4ccccc4cn3)C(=O)OC12C.O=CO (stereo not shown) [10.09] | >64.00 µg/mL | <0.06 µg/mL | <0.06 µg/mL | 1 µg/mL | 2 µg/mL |
| CCC1OC(=O)C(C)C(=O)C(C)C(OC2OC(C)CC(N(C)C)C2O)C(C)(OC)CC(C)C(=O)C(C)C2N(CC3CCCN3C(=O)c3ccnc4ccccc34)C(=O)OC12C.O=CO (stereo not shown) [10.10] | >64.00 µg/mL | <0.06 µg/mL | <0.06 µg/mL | 1 µg/mL | 4 µg/mL |
